Results reported in publication PMC8119466, “A screen of FDA-approved drugs identifies inhibitors of protein tyrosine phosphatase 4A3 (PTP4A3 or PRL-3)” (Scientific Reports, 2021).
Structures can show the parent of a compound that is named as a salt. Where two headings read alike, the source gives them in different places.

Columns and labels:
Format in all cases: biochemical
recombinant PRL-1 = target: T1, recombinant PRL-1 (Homo sapiens, UniProt Q93096); assay: In vitro phosphatase assay (DiFMUP hydrolysis), PRL-1; note: test concentration or dose not given here
T1 construct: 6xHis (N, cleaved yes); made in house; host or cells: E. coli One Shot BL21 Star
T1 sequence (Q93096 1-173): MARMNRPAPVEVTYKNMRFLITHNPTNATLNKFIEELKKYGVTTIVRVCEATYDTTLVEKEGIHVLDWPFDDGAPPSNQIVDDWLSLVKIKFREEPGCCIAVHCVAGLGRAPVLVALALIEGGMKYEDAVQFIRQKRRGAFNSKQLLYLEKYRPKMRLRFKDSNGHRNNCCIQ

recombinant PRL-2 = target: T2, recombinant PRL-2 (Homo sapiens, UniProt Q12974); assay: In vitro phosphatase assay (DiFMUP hydrolysis), PRL-2;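 note: PRL-2 activity read as DiFMUP hydrolysis after 20 min at room temperature with drug, enzyme first pre-reduced at 4 °C for 20 min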
T2 construct: 6xHis (N, cleaved yes); made in house; host or cells: E. coli One Shot BL21 Star
T2 sequence (Q12974 1-167): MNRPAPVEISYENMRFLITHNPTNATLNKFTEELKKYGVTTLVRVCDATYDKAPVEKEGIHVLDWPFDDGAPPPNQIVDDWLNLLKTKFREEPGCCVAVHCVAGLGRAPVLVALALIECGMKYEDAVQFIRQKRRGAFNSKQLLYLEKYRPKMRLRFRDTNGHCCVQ

recombinant PRL-3 = target: T3, recombinant PRL-3 (Homo sapiens, UniProt O75365); assay: In vitro phosphatase assay (DiFMUP hydrolysis), PRL-3; note: test concentration or dose not given here
T3 construct: 6xHis (N, cleaved yes); made in house; host or cells: E. coli One Shot BL21 Star

[1] = FDA-approved drug screen, compared to DMSO

T3 sequence (O75365 whole entry): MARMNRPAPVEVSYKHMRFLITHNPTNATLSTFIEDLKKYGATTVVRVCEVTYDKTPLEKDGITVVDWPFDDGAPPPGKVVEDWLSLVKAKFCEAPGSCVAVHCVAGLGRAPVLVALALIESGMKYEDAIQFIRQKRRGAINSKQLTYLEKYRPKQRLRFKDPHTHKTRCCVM

Row | SMILES | % Phosphatase Activity (compared to DMSO) PRL-1 (recombinant PRL-1; [1]) [%] | % Phosphatase Activity (compared to DMSO) PRL-2 (recombinant PRL-2; [1]) [%] | % Phosphatase Activity (compared to DMSO) PRL-3 (recombinant PRL-3; [1]) [%] | % Phosphatase Activity (compared to DMSO) PRL-1 (recombinant PRL-1) [%] | % Phosphatase Activity (compared to DMSO) PRL-2 (recombinant PRL-2) [%] | % Phosphatase Activity (compared to DMSO) PRL-3 (recombinant PRL-3) [%]
1 | CC(O)C(=O)O.CC(O)C(=O)O.CN1CCN(c2ccc3nc(-c4c(N)c5c(F)cccc5[nH]c4=O)[nH]c3c2)CC1 [Dovitinib (TKI-258) Dilactic Acid] | 92 | 80 | 91 | – | – | –
2 | CN1CCN(c2ccc3nc(-c4c(N)c5c(F)cccc5[nH]c4=O)[nH]c3c2)CC1 [Dovitinib (TKI-258, CHIR-258)] | 87 | 96 | 74 | – | – | –
3 | CCN1CC(CCN2CCOCC2)C(c2ccccc2)(c2ccccc2)C1=O.Cl (stereo not drawn) [Doxapram HCl] | 113 | 98 | 92 | – | – | –
4 | COc1cc2nc(N3CCN(C(=O)C4COc5ccccc5O4)CC3)nc(N)c2cc1OC (stereo not drawn) [Doxazosin Mesylate] | 441 | 528 | 305 | – | – | –
5 | C=C1/C(=C\C=C2/CCC[C@]3(C)[C@@H]([C@H](C)/C=C/[C@H](C)C(C)C)CC[C@@H]23)C[C@@H](O)C[C@@H]1O [Doxercalciferol] | 105 | 99 | 71 | – | – | –
6 | C[C@H]1O[C@@H](n2cc(F)c(=O)[nH]c2=O)[C@H](O)[C@@H]1O [Doxifluridine] | 91 | 103 | 98 | – | – | –
7 | Cn1c(=O)c2c(ncn2CC2OCCO2)n(C)c1=O [Doxofylline] | 103 | 109 | 79 | – | – | –
8 | COc1cccc2c1C(=O)c1c(O)c3c(c(O)c1C2=O)C[C@@](O)(C(=O)CO)C[C@@H]3O[C@H]1C[C@H](N)[C@H](O)[C@H](C)O1 [Doxorubicin (Adriamycin)] | 75 | 74 | 73 | – | – | –
9 | C[C@H]1c2cccc(O)c2C(=O)C2=C(O)[C@]3(O)C(=O)C(C(N)=O)=C(O)[C@@H](N(C)C)[C@@H]3[C@@H](O)[C@@H]21 [Doxycycline HCl] | 83 | 83 | 73 | – | – | –
10 | CN(C)CCOC(C)(c1ccccc1)c1ccccn1 (stereo not drawn) [Doxylamine Succinate] | 91 | 83 | 71 | – | – | –
11 | CCCCc1oc2ccc(NS(C)(=O)=O)cc2c1C(=O)c1ccc(OCCCN(CCCC)CCCC)cc1 [Dronedarone HCl] | 116 | 131 | 96 | – | – | –
12 | O=C(CCCN1CC=C(n2c(=O)[nH]c3ccccc32)CC1)c1ccc(F)cc1 [Droperidol] | 85 | 106 | 71 | – | – | –
13 | OCC(O)CN1CCN(c2ccccc2)CC1 (stereo not drawn) [Dropropizine] | 91 | 110 | 76 | – | – | –
14 | C[C@]12CCC(=O)C=C1[C@@H]1C[C@@H]1[C@H]1[C@@H]3[C@@H]4C[C@@H]4[C@@]4(CCC(=O)O4)[C@@]3(C)CC[C@@H]12 [Drospirenone] | 90 | 89 | 71 | – | – | –
15 | CNCC[C@H](Oc1cccc2ccccc12)c1cccs1 [Duloxetine HCl] | – | – | – | 97 | 107 | 89
16 | C[C@]12C=CC(=O)N[C@@H]1CC[C@@H]1[C@@H]2CC[C@]2(C)[C@@H](C(=O)Nc3cc(C(F)(F)F)ccc3C(F)(F)F)CC[C@@H]12 [Dutasteride] | 94 | 88 | 82 | – | – | –
